Reference: article PMC10761396, “Evaluation of new alternative methods for the identification of estrogenic, androgenic and steroidogenic effects: a comparative in vitro/in silico study” (Archives of Toxicology, 2023)

How the values were obtained:
[1] = test system: AR; conditions: AR pathway model; ref Kleinstreuer et al (2017) 10.1021/acs.chemrestox.6b00347; cited from earlier work
[2] = biological target: T1, AR (Homo sapiens, UniProt P10275); assay: YAS (Yeast androgen screen) assay, agonist and antagonist mode
T1 sequence (P10275 1-920): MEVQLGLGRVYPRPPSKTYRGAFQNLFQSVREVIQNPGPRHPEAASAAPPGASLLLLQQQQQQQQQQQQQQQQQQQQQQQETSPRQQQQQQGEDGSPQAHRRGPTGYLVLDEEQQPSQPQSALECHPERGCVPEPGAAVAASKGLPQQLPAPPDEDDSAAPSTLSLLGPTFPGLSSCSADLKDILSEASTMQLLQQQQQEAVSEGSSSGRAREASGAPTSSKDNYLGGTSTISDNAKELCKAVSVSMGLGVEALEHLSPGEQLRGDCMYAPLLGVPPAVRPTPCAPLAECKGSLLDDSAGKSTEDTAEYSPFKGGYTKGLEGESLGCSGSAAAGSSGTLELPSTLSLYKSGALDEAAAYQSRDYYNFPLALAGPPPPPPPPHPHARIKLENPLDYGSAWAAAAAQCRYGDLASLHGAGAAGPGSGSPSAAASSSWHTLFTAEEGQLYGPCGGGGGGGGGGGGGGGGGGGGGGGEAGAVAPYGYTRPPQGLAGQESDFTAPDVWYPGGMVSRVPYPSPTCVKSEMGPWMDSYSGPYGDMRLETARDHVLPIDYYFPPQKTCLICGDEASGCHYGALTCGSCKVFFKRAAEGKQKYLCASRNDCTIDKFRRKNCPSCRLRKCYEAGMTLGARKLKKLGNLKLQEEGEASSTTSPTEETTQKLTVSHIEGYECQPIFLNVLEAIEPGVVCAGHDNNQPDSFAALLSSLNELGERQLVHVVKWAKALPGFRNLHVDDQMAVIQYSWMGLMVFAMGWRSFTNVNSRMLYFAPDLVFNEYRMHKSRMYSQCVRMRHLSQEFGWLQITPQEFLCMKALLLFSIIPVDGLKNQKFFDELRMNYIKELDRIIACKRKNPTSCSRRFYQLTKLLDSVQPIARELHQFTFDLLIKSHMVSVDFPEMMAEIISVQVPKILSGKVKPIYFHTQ
Experimental: The YES/YAS XL (Xtra Lyticase) assay kit from Xenometrix AG (Allschwil, Switzerland) was conducted according to the Supplier’s instructions.
In the YES assay, human ERα is integrated in the yeast (Saccharomyces cerevisiae) chromosome, and for the YAS assay human AR is integrated (Routledge and Sumpter 1996; Sohoni and Sumpter 1998). […] This enzyme then converts a yellow substrate to a purple metabolite, which can be measured colorimetrically.
Growing yeast cells stably transformed with either hERα (YES) or hAR (YAS) and a β-galactosidase reporter system were exposed to a range of concentrations of each test compound. […] The positive control chemicals for agonistic effects were 17-β estradiol for YES and 5α-dihydrotestosterone for YAS. […] A combination of a fixed concentration of positive control and a range of concentrations of each test chemical were tested. The cells were incubated with each treatment for 18 h at 31°C. The cells were lysed in the presence of the yellow β-galactosidase-substrate, chlorophenol red-β-D-galactopyranoside (CPRG). Yeast cell growth was assessed prior to addition of the lysis buffer by measuring the absorbance at 690 nm. The production of the red metabolite of CPRG was determined by measuring the absorbance at 570 nm. It was corrected for diffraction by cells and debris by a simultaneous measurement at 690 nm. The results were evaluated for estrogenic and androgenic agonistic and antagonistic activity, as well as for yeast growth inhibition or cytotoxicity.
An IR value ≥ IR10 in the YES or YAS agonist assay indicates an agonistic effect (IR10 is defined as the IR which is 10% of (IR max - IR solvent) above the IR solvent. An IR value ≤ IR50 in the YES or YAS antagonist assay indicates a possible antagonistic effect (IR50 is defined as 50% of (IR control - IR solvent), where the IR control is at the corresponding fixed concentration of agonist used: 3.3 × 10^-10 M 17-β estradiol and 3.3 × 10^-9 M 5α-dihydrotestosterone, respectively). […]

[3] = biological target: T1, AR; assay: (anti-)AR CALUX receptor transactivation assay; type: cell-based; parameters: expressed in transfected cells; host or cells: CALUX cells (U2-OS is named only for the cytotoxicity CALUX)
Experimental: (§1) The human CALUX® assays were used to measure the impact of test compounds on estrogen and androgen pathways. […] Chemicals can activate (or inactivate, in the case of an antagonistic activity) a ligand-specific pathway by binding to the receptor (ER, AR), after which the receptor-ligand complex binds to specific DNA REs […], resulting in increased (or decreased) cellular expression of a marker protein (e.g., luciferase).
(§2) Chemicals were dissolved and diluted in DMSO. […] The cytotoxicity of each test chemical was assessed using the U2-OS based cytotoxicity CALUX bioassay. Concentrations causing >20% reduction of luminescence were considered cytotoxic. […] Luciferase production was quantified by measuring luminescence following addition of luciferin. For antagonist assays, a fixed concentration of receptor agonist was co-incubated with a range of concentrations of the test chemical. […] For the AR assays, dihydrotestosterone was the positive control for agonistic effects and flutamide was the positive control for antagonist effects.
(§3) Each test chemical was tested in triplicates in two independent experiments.

[4] = biological target: T2, human recombinant CYP19A1 (Homo sapiens, UniProt P11511); assay: Recombinant enzyme aromatase activity inhibition assay; type: biochemical; conditions: follow-up dose–response assay
T2 sequence (P11511 1-503): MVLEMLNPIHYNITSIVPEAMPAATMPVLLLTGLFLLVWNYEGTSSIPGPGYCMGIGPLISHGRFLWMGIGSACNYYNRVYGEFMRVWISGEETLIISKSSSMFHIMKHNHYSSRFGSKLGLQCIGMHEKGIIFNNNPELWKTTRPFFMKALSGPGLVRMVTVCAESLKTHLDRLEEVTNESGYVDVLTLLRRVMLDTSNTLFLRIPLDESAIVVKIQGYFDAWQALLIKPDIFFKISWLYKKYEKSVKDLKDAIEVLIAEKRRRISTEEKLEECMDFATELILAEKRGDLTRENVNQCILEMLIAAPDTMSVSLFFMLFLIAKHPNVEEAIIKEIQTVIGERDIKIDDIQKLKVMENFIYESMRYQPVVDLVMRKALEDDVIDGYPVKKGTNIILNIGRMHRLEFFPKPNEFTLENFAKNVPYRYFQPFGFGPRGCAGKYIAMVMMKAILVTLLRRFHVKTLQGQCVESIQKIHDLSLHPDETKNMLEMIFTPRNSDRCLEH
Experimental: An aromatase inhibition assay was also included in the in vitro assay panel. This enzyme – otherwise known as CYP19A1 - is responsible for converting androgens into estrogens (Blakemore and Naftolin 2016; Bulun 2014); therefore, chemicals that inhibit aromatase activity can lead to reduced estrogen production, which can affect reproductive and developmental processes (Kragie 2002; Tiboni and Ponzano 2016).
The metabolite, estradiol, was measured by time-resolved fluorescence according to the method described previously (Ji et al. 2014). Enzyme inhibition was calculated as a % inhibition of control enzyme activity.

[5] = biological target: T3, ERα (Homo sapiens, UniProt P03372); assay: (anti-)ERα CALUX receptor transactivation assay; type: cell-based; parameters: expressed in transfected cells; host or cells: CALUX cells (U2-OS is named only for the cytotoxicity CALUX)
T3 sequence (P03372 1-595): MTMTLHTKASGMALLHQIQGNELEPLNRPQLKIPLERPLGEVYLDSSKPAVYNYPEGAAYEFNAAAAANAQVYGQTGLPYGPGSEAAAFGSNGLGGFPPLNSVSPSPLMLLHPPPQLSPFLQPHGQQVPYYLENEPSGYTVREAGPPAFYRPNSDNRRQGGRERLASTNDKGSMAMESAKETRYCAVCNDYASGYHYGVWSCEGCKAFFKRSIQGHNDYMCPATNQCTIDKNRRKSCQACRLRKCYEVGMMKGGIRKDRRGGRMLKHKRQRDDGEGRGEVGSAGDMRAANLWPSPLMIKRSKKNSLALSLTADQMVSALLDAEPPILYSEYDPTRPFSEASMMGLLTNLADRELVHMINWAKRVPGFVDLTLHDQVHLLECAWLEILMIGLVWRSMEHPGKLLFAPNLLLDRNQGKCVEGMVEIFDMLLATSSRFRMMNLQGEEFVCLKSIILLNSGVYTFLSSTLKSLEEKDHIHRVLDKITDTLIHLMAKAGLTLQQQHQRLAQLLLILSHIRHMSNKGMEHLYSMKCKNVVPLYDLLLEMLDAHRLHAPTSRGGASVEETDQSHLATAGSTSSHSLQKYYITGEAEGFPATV
Experimental: as §1, §2, §3

## CC(C)(C)CC(C)(C)c1ccc(O)cc1 [4-TO, 4-tert-octylphenol]
[1]
  ToxCast Pathway Model (AUC): AUC = 0.23 as agonist, then there is a significant interaction.
[2]; agonist and antagonist
  outcome in the YAS assay: negative
[2]; highest concentrations tested
  toxicity to yeast (decrease in the yeast cell growth): toxic at the highest concentrations tested
[3]
  LEC, AR antagonism: 0.44 µM

## CCCCN(CCCC)c1ccc(C(=O)c2ccccc2C(=O)O)c(O)c1 [DBABA, 2-[4-(dibutylamino)-2-hydroxybenzoyl]benzoic acid]
[2]; YAS antagonist assay
  AR antagonism in the YAS assay: inconclusive
[3]
  outcome in the AR transactivation assay: negative

## O=c1c(-c2ccc(O)cc2)coc2cc(O)ccc12 [Daidzein, daidzein]
[4]
  aromatase inhibition outcome: lack of binding
[1]
  ToxCast Pathway Model (AUC): AUC = 0, then there is no significant interaction.
[5]
  Lowest Effective Concentration (LEC), ER agonism: 0.1 µM
[3]
  outcome in the AR transactivation assay: negative

## C[C@]12CCC(=O)C[C@@H]1CC[C@@H]1[C@@H]2CC[C@@]2(C)[C@H]1CC[C@]2(C)O [Mestanolone, mestanolone, reference compound]
[4]
  aromatase inhibition outcome: lack of binding
[5]
  Lowest Effective Concentration (LEC), ER agonism: 0.028 µM
